Reference: patent US11986475B1, “Compositions and methods for treating cancer” (A2A Pharmaceuticals, Inc., priority 2022, dated 2024)

Experiments:
MDA-MB-231 = assay: Cell viability assay (SRB or CTG) in MDA-MB-231; assay type: cell-based; details: Homo sapiens, MDA-MB-231, 72 h, 3 days after drug treatment
Procedure: (§1) Human breast carcinoma cell line, MDA-MB-231 and human endometrial cancer cell line, HEC-59 were purchased from ATCC (American Type Culture Collection; USA). MDA-MB-231 cells were cultured in Dulbecco's modified Eagle's medium (Lonza, NJ, USA), and HEC-59 were grown in Iscove's Modified Dulbecco's Medium (Lonza, NJ, USA), supplemented with 10% fetal bovine serum (FBS, Lonza), 1% non-essential amino acid (NEAA), 2 mM L-glutamine (Sigma Aldrich, MO, USA) and 50 U/ml penicillin/streptomycin (P/S). All cell lines were tested regularly using MycoAlert Mycoplasma Detection Kit (Lonza). The cumulative length of the cells between thawing and use in the experiments was less than 20 passages.
(§2) 4000 cells/well of MDA-MB-231 and HEC-59 cells were seeded in a 96 well plate in 80 μL media/well. Approximately 18 hours later, 3× drug solutions were prepared by serial dilution (100, 10, 5, 1, 0.5, 0.3, 0.1, 0.05, 0.01 μM), and the drug containing media was added to each well with a volume of 40 μL. For MDA-MB-231, 3 days after drug treatment, the SRB or CTG assay was performed. HEC59, the drug containing media was renewed at day 4. After 7 days total, the SRB or CTG assay was performed.

HEC-59 = assay: Cell viability assay (SRB or CTG) in HEC-59; assay type: cell-based; details: Homo sapiens, 7 days total, media renewed at day 4, SRB or CTG
Procedure: as §1, §2

| SMILES | IC50 (MDA-MB-231) [nM] | IC50 (HEC-59) [nM] |
| --- | --- | --- |
| C[C@@H]1CN(c2ncc(F)c(Nc3cc(-c4ccc(OC(F)F)cc4)cnn3)n2)C[C@@H](C)O1 [Compound 90, 5-(4-(difluoromethoxy)phenyl)-N-(2-((2R,6R)-2,6-dimethylmorpholino)-5-fluoropyrimidin-4-yl)pyridazin-3-amine] | 533 | 1100 |
| C[C@H]1CN(c2ncc(F)c(Nc3cc(-c4ccc(OC(F)F)cc4)cnn3)n2)C[C@H](C)O1 [Compound 91, 5-(4-(difluoromethoxy)phenyl)-N-(2-((2S,6S)-2,6-dimethylmorpholino)-5-fluoropyrimidin-4-yl)pyridazin-3-amine] | 328 | 200 |
| Fc1cnc(N2CCOC3CC32)nc1Nc1cc(-c2ccc(OC(F)F)cc2)cnn1 (stereo not drawn) [Compound 103, N-(2-(2-oxa-5-azabicyclo[4.1.0]heptan-5-yl)-5-fluoropyrimidin-4-yl)-5-(4-(difluoromethoxy)phenyl)pyridazin-3-amine] | > 10000 | > 10000 |
| Fc1cnc(N2CCCC2)nc1Nc1cc(-c2ccc(OC(F)F)cc2)cnn1 [Compound 104, 5-(4-(difluoromethoxy)phenyl)-N-(5-fluoro-2-(pyrrolidin-1-yl)pyrimidin-4-yl)pyridazin-3-amine] | 345 | 86 |
| C[C@@H]1CN(c2nc(F)cc(Nc3cc(-c4ccc(OC(F)F)cc4)cnn3)n2)C[C@H](C)O1 [Compound 131, 5-(4-(difluoromethoxy)phenyl)-N-(2-((2R,6S)-2,6-dimethylmorpholino)-6-fluoropyrimidin-4-yl)pyridazin-3-amine] | 181 | 142 |
| C[C@@H]1CN(c2nccc(Nc3cc(-c4ccc(OC(F)F)cc4)cnc3F)n2)C[C@H](C)O1 [Compound 182, N-(5-(4-(difluoromethoxy)phenyl)-2-fluoropyridin-3-yl)-2-((2R,6S)-2,6-dimethylmorpholino)pyrimidin-4-amine] | 1090 | 290 |
| C[C@@H]1CN(c2ccc(F)c(Nc3cc(-c4ccc(OC(F)F)cc4)cnn3)n2)C[C@H](C)O1 [Compound 223, 5-(4-(difluoromethoxy)phenyl)-N-(6-((2R,6S)-2,6-dimethylmorpholino)-3-fluoropyridin-2-yl)pyridazin-3-amine] | 84 | 61 |
| C[C@@H]1CN(c2nccc(Nc3cc(-c4ccc(OC(F)F)cc4)c[nH]c3=O)n2)C[C@H](C)O1 [Compound 264, 5-(4-(difluoromethoxy)phenyl)-3-((2-((2R,6S)-2,6-dimethylmorpholino)pyrimidin-4-yl)amino)pyridin-2(1H)-one] | 202 | 121 |
| COc1ncc(-c2ccc(OC(F)F)cc2)cc1Nc1ccnc(N2C[C@@H](C)O[C@@H](C)C2)n1 [Compound 305, N-(5-(4-(difluoromethoxy)phenyl)-2-methoxypyridin-3-yl)-2-((2R,6S)-2,6-dimethylmorpholino)pyrimidin-4-amine] | > 10000 | > 10000 |
| C[C@@H]1CN(c2ncc(F)c(Nc3cc(-c4ccc(OC(F)F)cc4)c[nH]c3=O)n2)C[C@H](C)O1 [Compound 346, 5-(4-(difluoromethoxy)phenyl)-3-((2-((2R,6S)-2,6-dimethylmorpholino)-5-fluoropyrimidin-4-yl)amino)pyridin-2(1H)-one] | 1050 | 784 |
| COc1ncc(-c2ccc(OC(F)F)cc2)cc1Nc1nc(N2C[C@@H](C)O[C@@H](C)C2)ncc1F [Compound 387, N-(5-(4-(difluoromethoxy)phenyl)-2-methoxypyridin-3-yl)-2-((2R,6S)-2,6-dimethylmorpholino)-5-fluoropyrimidin-4-amine] | > 10000 | > 10000 |
| C[C@@H]1CN(c2cc(Nc3cc(-c4ccc(OC(F)F)cc4)cnn3)ccn2)C[C@H](C)O1 [Compound 428, 5-(4-(difluoromethoxy)phenyl)-N-(2-((2R,6S)-2,6-dimethylmorpholino)pyridin-4-yl)pyridazin-3-amine] | 794 | > 10000 |
| C[C@@H]1CN(c2cc(Nc3cc(-c4ccc(OC(F)F)cc4)cnn3)c(F)cn2)C[C@H](C)O1 [Compound 469, 5-(4-(difluoromethoxy)phenyl)-N-(2-((2R,6S)-2,6-dimethylmorpholino)-5-fluoropyridin-4-yl)pyridazin-3-amine] | 645 | 1300 |
| Cc1nnc(Nc2nc(N3C[C@@H](C)O[C@@H](C)C3)ncc2F)cc1-c1ccc(OC(F)F)cc1 [Compound 508, 5-(4-(difluoromethoxy)phenyl)-N-(2-((2R,6S)-2,6-dimethylmorpholino)-5-fluoropyrimidin-4-yl)-6-methylpyridazin-3-amine] | > 10000 | 7260 |
| COc1nnc(Nc2nc(N3C[C@@H](C)O[C@@H](C)C3)ncc2F)cc1-c1ccc(OC(F)F)cc1 [Compound 526, 5-(4-(difluoromethoxy)phenyl)-N-(2-((2R,6S)-2,6-dimethylmorpholino)-5-fluoropyrimidin-4-yl)-6-methoxypyridazin-3-amine] | > 10000 | 1180 |
| CNc1nnc(Nc2nc(N3C[C@@H](C)O[C@@H](C)C3)ncc2F)cc1-c1ccc(OC(F)F)cc1 [Compound 544, 4-(4-(difluoromethoxy)phenyl)-N6-(2-((2R,6S)-2,6-dimethylmorpholino)-5-fluoropyrimidin-4-yl)-N3-methylpyridazine-3,6-diamine] | > 10000 | 2720 |
| C[C@@H]1CN(c2ncc(F)c(Nc3cc(-c4ccc(OC(F)F)cc4)c(C(=O)O)nn3)n2)C[C@H](C)O1 [Compound 562, 4-(4-(difluoromethoxy)phenyl)-6-((2-((2R,6S)-2,6-dimethylmorpholino)-5-fluoropyrimidin-4-yl)amino)pyridazine-3-carboxylic acid] | > 10000 | > 10000 |
| CC(=O)c1nnc(Nc2nc(N3C[C@@H](C)O[C@@H](C)C3)ncc2F)cc1-c1ccc(OC(F)F)cc1 [Compound 580, 1-(4-(4-(difluoromethoxy)phenyl)-6-((2-((2R,6S)-2,6-dimethylmorpholino)-5-fluoropyrimidin-4-yl)amino)pyridazin-3-yl)ethan-1-one] | > 10000 | > 10000 |
| C[C@@H]1CN(c2ncc(F)c(Nc3cc(-c4ccc(OC(F)F)cc4)c(N)nn3)n2)C[C@H](C)O1 [Compound 598, 5-(4-(difluoromethoxy)phenyl)-N3-(2-((2R,6S)-2,6-dimethylmorpholino)-5-fluoropyrimidin-4-yl)pyridazine-3,6-diamine] | 805 | 9850 |
| COC(=O)c1nnc(Nc2nc(N3C[C@@H](C)O[C@@H](C)C3)ncc2F)cc1-c1ccc(OC(F)F)cc1 [Compound 616, methyl 4-(4-(difluoromethoxy)phenyl)-6-((2-((2R,6S)-2,6-dimethylmorpholino)-5-fluoropyrimidin-4-yl)amino)pyridazine-3-carboxylate] | > 10000 | > 10000 |
| CNC(=O)c1nnc(Nc2nc(N3C[C@@H](C)O[C@@H](C)C3)ncc2F)cc1-c1ccc(OC(F)F)cc1 [Compound 634, 4-(4-(difluoromethoxy)phenyl)-6-((2-((2R,6S)-2,6-dimethylmorpholino)-5-fluoropyrimidin-4-yl)amino)-N-methylpyridazine-3-carboxamide] | > 10000 | > 10000 |
